Measurements taken from patent US20120303115A1 (priority 2011, published 2012).

Columns and labels:
[1] = Drug concentration in liquid formulations by liquid chromatography; type: physicochemical; details: water, Vitamin E TPGS as excipient, ethanol less than two percent
Method: Table 7, shown below, summarizes the concentrations of the excipient, the co-solvents and the drug for four different liquid formulations.
Another liquid formulation of sirolimus comprises water and ethanol as co-solvents and Vitamin E TPGS as the excipient. The liquid formulation was created utilizing the following process. Two hundred milligrams of sirolimus and two grams of ethanol were added to a pre-weighed twenty milliliter scintillation vial. The vial was vortexed and sonicated until the sirolimus was completely dissolved. Approximately six hundred milligrams of Vitamin E TPGS was then added to the solution of ethanol and sirolimus. The vial was vortexed again until a clear yellowish solution was obtained. Nitrogen gas was then used to reduce the amount of ethanol in the vial to approximately two hundred twenty-nine milligrams. In a separate vial, three hundred milligrams of Vitamin E TPGS was dissolved in eleven milliliters of purified water while undergoing vortexing. The Vitamin E TPGS and water solution was then added to the first vial containing the sirolimus, Vitamin E TPGS and ethanol. The first vial was then vortexed vigorously and continuously for three minutes. […] The foam gradually disappeared after sitting at room temperature.
An aqueous formulation of CCl-779, a sirolimus analog, is prepared utilizing ethanol, Vitamin E TPGS and water. […]

[2] = Method: Table 9, shown below, summarizes a number of injectable liquid formulations of paclitaxel utilizing combinations of ethanol, PEG 400 and water. Specifically, the formulations set forth in Table 9 were made and analyzed for their concentrations of its various constituents. The concentrations are determined by liquid chromatography and are presented as weight by volume figures. The concentration of ethanol is preferably two or less percent so as to avoid ethanol becoming an active ingredient in the formulation.
Another aqueous liquid or injectable formulation of paclitaxel is made utilizing ethanol, PEG 400 and water, and ethanol, Vitamin E TPGS, PEG400 and water. In making the first formulation, 100 mg of paclitaxel is added to 400 μl of ethanol in a pre-weighed 20 ml scintillation vial. The mixture of paclitaxel and ethanol is vortexed and heated in a 60 degree C. bath for ten minutes. Once the drug is completely solubilized, 20 ml of PEG 400 is then added to make the final paclitaxel concentration 5 mg/ml. […] In a separate experiment, a series of 20 ml scintillation vials containing Vitamin E TPGS are heated or warmed up in a 50 degree C. water bath for ten minutes. Concurrently, distilled water is also warmed in a 50 degree C. water bath. […]

[3] = Percent drug content change of coated cobalt-chromium stent, 0 to 12 weeks (FIG. 1); type: physicochemical; details: 0.02 weight percent BHT per total basecoat solids; sirolimus and polymer on 18 mm stent; 8 weeks and 12 weeks, ambient conditions (25° C.)
Text: Referring to FIG. 1, there is illustrated in graphical format, the results of the same drug screening as described above with the solution applied to a cobalt-chromium, 18 mm stent. In this test, two sets of solution samples were utilized, one with sirolimus and polymer solution containing the antioxidant and one with sirolimus and polymer solution containing no antioxidant. The antioxidant utilized was 0.02 weight percent BHT per total basecoat solids. The test was utilized to determine the percent drug content change over a time period of 0 to 12 weeks under two conditions; namely, 40° C. with 75 percent relative humidity, and ambient conditions (25° C.).

In the case of CCl-779, the “concentration in the final solution (HPLC assay)” value [1] is reported as 15000 µg/mL.
For `CC(=O)O[C@H]1C(=O)[C@@]2(C)[C@H]([C@H](OC(=O)c3ccccc3)[C@]3(O)C[C@H](OC(=O)[C@H](O)[C@@H](NC(=O)c4ccccc4)c4ccccc4)C(C)=C1C3(C)C)[C@]1(OC(C)=O)CO[C@@H]1C[C@@H]2O` [paclitaxel], the “concentration relative to the solubility of paclitaxel in water” value [2] was “about 1000 fold” and the “paclitaxel concentration of true aqueous liquid formulations” value [2] was “up to 2.5 mg/ml”.
In the case of `Cc1cc(C(C)(C)C)c(O)c(C(C)(C)C)c1` [BHT, butylated hydroxytoluene], the “drug degradation (percent drug content change)” value [3] is reported as “lessens drug degradation”.
